Data taken from patent US20110105544A1, “CARBOXYLIC DERIVATIVES FOR USE IN THE TREATMENT OF CANCER” (priority 2007, published 2011).
Structures can show the parent of a compound that is named as a salt.

What was measured:
[1] = tested on: human colon cancer cell line HCT116; test: alamarBlue viability assay, HCT116; assay type: cell-based; details: HCT-116, 72 hours, dose required to inhibit cell growth by 50%
Method: (§1) The human colon cancer cell line HCT116 and the human breast cancer cell line MCF-7 were from the American Type Culture Collection (ATCC; CCL-247 and HTB-22, respectively).
(§2) The HCT116 cell line was maintained in DMEM GlutaMAX (Invitrogen) supplemented with 10% fetal calf serum and the MCF7 cell line was maintained in RPMI1640 GlutaMAX (Invitrogen) containing 1 mM sodium piruvate and 10% fetal calf serum.
(§3) Cells were grown in a humidified incubator at 37° C. in 5% CO2.
(§4) Cells were plated in 96-well plates at a density of 6000 cells/well in 100 μl medium 24 h before addition of drugs. […] To do so, a drugs-dilution plate at twice the screening concentrations was prepared. 72 hours later, alamarBlue (Biosource, Invitrogen) viability assay was performed following manufacturer's protocol. In brief, alamarBlue diluted in media was added to cells to have a 5% solution. Cells were incubated at 37° C., 3 hours and at room temperature, 30 min. Cells with no drug and, cells with no drug and lysed with triton X-100 were used as controls. Fluorescence was monitored at 530 nm excitation and 590 nm emission wavelengths. Results were quantified using Infinite F200 Microplate Reader (Tecan Group, Ltd.). EC50 were calculated as the dose of drugs required to inhibit cell growth by 50%, with Origin 7.0 computer program.

human recombinant HDAC 2 = target: T1, human recombinant HDAC 2 (Homo sapiens, UniProt Q92769); test: HDAC inhibition assay (Fluor de Lys), HDAC2; assay type: biochemical; details: inhibitor-protein incubation 2 hours, reaction 1 h 30 min, 37° C.
T1 construct: purchased BPS Bioscience 50002
T1 sequence (Q92769 whole entry): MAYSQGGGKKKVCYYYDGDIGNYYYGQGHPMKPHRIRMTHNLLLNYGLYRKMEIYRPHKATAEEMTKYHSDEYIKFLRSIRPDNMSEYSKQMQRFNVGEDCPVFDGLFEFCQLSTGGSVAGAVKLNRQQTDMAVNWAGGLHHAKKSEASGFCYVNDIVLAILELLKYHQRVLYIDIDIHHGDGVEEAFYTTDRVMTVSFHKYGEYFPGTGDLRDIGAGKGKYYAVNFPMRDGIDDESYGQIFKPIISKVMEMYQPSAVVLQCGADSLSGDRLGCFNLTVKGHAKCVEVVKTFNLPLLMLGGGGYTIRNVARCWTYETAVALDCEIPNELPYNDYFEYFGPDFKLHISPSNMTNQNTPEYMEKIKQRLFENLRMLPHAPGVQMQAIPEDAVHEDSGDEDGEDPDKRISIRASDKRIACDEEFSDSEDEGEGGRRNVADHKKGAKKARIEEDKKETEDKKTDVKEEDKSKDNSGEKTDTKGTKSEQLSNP
Method: (§5) All assays were carried out in the assay buffer: 50 mM Tris/Cl, pH 8.0, 137 mM NaCl, 2.7 mM KCl, 1 mM MgCl2).
(§6) Reactions were carried out in a 96-wells microplate (Corning 96 well Flat Bottom Non-binding surface (black) ref. 3651).
(§7) Potential inhibitors were added after five fold serial dilutions in DMSO. Final DMSO concentration in the assay microplate was kept at 2%.
(§8) Afterwards, human recombinant HDAC1, HDAC 2 or HDAC 8 were added up to […] respectively in assay buffer. When necessary, the mixture was incubated at room temperature prior the addition of substrate.
(§9) Total reaction volume of 50 μl. Human recombinant HDACs could be acquired from commercial sources (HDAC1: ref. #50001, BPS Bioscience™; HDAC 2: ref. #50002, BPS Bioscience™; HDAC 8: ref. #50008, BPS Bioscience™).
(§10) Reactions were stopped with 50 μl Developer (KI-105 Fluor de Lys™, BIOMOL®) with 2 μmol/L trichostatin A (TSA, final concentration 1 μmol/L). After 20 minutes at 37° C., fluorescence (excitation 360 nm, emission 460 nm) was measured using an Infinite F200 fluorimeter (Tecan). Background was determined in reactions using substrate in the absence of enzyme.
(§11) IC50 values are defined as the compound concentration at which the deacetylase activity is 50% inhibited. In these assays the following grading was used (I: IC50≦10 μM; II: 10 μM<IC50≦100 μM; III: 100 μM<IC50≦1 mM) The results obtained are summarized in Table 4.

human recombinant HDAC 8 = target: T2, human recombinant HDAC 8 (Homo sapiens, UniProt Q9BY41); test: HDAC inhibition assay (Fluor de Lys), HDAC8; assay type: biochemical; details: inhibitor-protein incubation 0 hours, reaction 3 hours, 37° C.
T2 construct: purchased BPS Bioscience 50008
T2 sequence (Q9BY41 1-377): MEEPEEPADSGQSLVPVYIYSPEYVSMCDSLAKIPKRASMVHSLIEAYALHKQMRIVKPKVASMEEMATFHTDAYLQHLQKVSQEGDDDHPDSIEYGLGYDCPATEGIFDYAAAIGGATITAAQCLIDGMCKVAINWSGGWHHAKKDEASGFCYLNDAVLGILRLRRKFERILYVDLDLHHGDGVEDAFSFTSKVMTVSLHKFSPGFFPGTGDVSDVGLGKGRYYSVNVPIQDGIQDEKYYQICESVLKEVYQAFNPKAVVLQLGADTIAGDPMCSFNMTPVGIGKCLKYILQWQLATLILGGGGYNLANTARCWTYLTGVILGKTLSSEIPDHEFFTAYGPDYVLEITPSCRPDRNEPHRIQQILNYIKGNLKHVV
Method: as §5, §6, §7, §8, §9, §10, §11

[2] = tested on: human breast cancer cell line MCF-7; test: alamarBlue viability assay, MCF-7; assay type: cell-based; details: MCF7, 72 hours, dose required to inhibit cell growth by 50%
Method: as §1, §2, §3, §4

MDA-MB-435P (breast) = test: alamarBlue viability assay, MDA-MB-435P; assay type: cell-based; details: 72 hours
Method: (§12) Additionally, the following cancer cell lines were used:
as §3
(§13) Cells were plated in 96-well plates at a density of 6000 cells/well in 100 μl medium 24 h before addition of drugs. They were then added in concentrations from 100 μM to 0.45 nM (each concentration in triplicate). To do so, a drugs-dilution plate at twice the screening concentrations was prepared. 72 hours later, alamarBlue (Biosource, Invitrogen) viability assay was performed following manufacturer's protocol. In brief, alamarBlue diluted in media was added to cells to have a 5% solution. Cells were incubated at 37° C., 3 hours and at room temperature, 30 min. Cells with no drug and, cells with no drug and lysed with triton X-100 were used as controls. Fluorescence was monitored at 530 nm excitation and 590 nm emission wavelengths. Results were quantified using Infinite F200 Microplate Reader (Tecan Group, Ltd.). EC50 were calculated as the dose of drugs required to inhibit cell growth by 50%, with Origin 7.0 computer program.

MDA-MB-468 (breast) = test: alamarBlue viability assay, MDA-MB-468; assay type: cell-based; details: Homo sapiens, 72 hours
Method: as §12, §3, §13

PC3 (prostate) = test: alamarBlue viability assay, PC3; assay type: cell-based; details: 72 hours
Method: as §12, §3, §4

Hep3B (hepatocarcinoma) = test: alamarBlue viability assay, Hep3B; assay type: cell-based; details: Homo sapiens, 72 hours
Method: as §12, §3, §4

| Structure (SMILES) | EC50 [1] [µM] | IC50 (human recombinant HDAC 2) [µM] | IC50 (human recombinant HDAC 8) [µM] | EC50 [2] [µM] | EC50 (MDA-MB-435P (breast)) [µM] | EC50 (MDA-MB-468 (breast)) [µM] | EC50 (PC3 (prostate)) [µM] | EC50 (Hep3B (hepatocarcinoma)) [µM] |
| --- | --- | --- | --- | --- | --- | --- | --- | --- |
| CCC(CCc1ccccc1)C(=O)OC (stereo not shown) [Example 4, Methyl 2-ethyl-4-phenylbutanoate] | 105 | – | – | 354 | – | – | – | – |
| CCC(CCc1ccccc1)C(=O)O (stereo not shown) [Example 5, 2-Ethyl-4-phenylbutanoic acid] | 2420 | – | – | 1420 | – | – | – | – |
| O=C(O)C(CCCc1ccc2ccccc2c1)CCc1ccccc1 (stereo not shown) [Example 22, 5-(2-Naphthyl)-2-(2-phenylethyl)pentanoic acid] | 96.5 | 100 to 1000 | 10 to 100 | – | – | – | – | – |
| COC(=O)C(CCc1ccccc1)Cc1ccccc1 (stereo not shown) [Example 8, Methyl 2-benzyl-4-phenylbutanoate] | – | – | – | 5000 | – | – | – | – |
| O=C(O)C(CCCc1cccc(S(=O)(=O)NCc2ccccc2)c1)CCc1ccccc1 (stereo not shown) [Example 27, 5-(3-[(Benzylamino)sulfonyl]phenyl)-2-(2-phenylethyl)pentanoic acid] | 140 | 10 to 100 | 10 to 100 | – | – | – | – | – |
| CNS(=O)(=O)c1cccc(CCCC(CCc2ccccc2)C(=O)OCOC(C)=O)c1 (stereo not shown) [Example 19, (Acetyloxy)methyl 5-(3-[(methylamino)sulfonyl]phenyl)-2-(2-phenylethyl)pentanoate] | 65 | – | – | – | 6.7 | 13 | – | – |
| O=C(O)C(CCCc1cccc2ccccc12)CCc1ccccc1 (stereo not shown) [Example 23, 5-(1-Naphthyl)-2-(2-phenylethyl)pentanoic acid] | 67 | 10 to 100 | 10 to 100 | – | – | – | – | – |
| O=C(O)C(C/C=C/c1ccccc1)CCc1ccccc1 (stereo not shown) [Example 21, (4E)-5-Phenyl-2-(2-phenylethyl)pent-4-enoic acid] | 204 | 100 to 1000 | 10 to 100 | – | – | – | – | – |
| COC(=O)C(C)CCc1ccccc1 (stereo not shown) [Example 2, methyl 2-methyl-4-phenylbutanoate] | 238 | – | – | 696 | – | – | – | – |
| CN(C)c1ccc(C(=O)Nc2cccc(CCCC(CCc3ccccc3)C(=O)O)c2)cc1 (stereo not shown) [Example 24, 5-[3-{[4-(dimethylamino)benzoyl]amino}phenyl]-2-(2-phenylethyl)pentanoic acid hydrochloride] | 75 | 10 to 100 | ≤ 10 | – | – | – | – | – |
| CCCC(CCc1ccccc1)C(=O)O (stereo not shown) [Example 7, 2-(2-Phenylethyl)pentanoic acid] | 680 | 100 to 1000 | 10 to 100 | 1850 | – | – | – | – |
| CNS(=O)(=O)c1ccc(CCCC(CCc2ccccc2)C(=O)O)s1 (stereo not shown) [Example 26, 5-{5-[(Methylamino)sulfonyl]thien-2-yl}-2-(2-phenylethyl)pentanoic acid] | 1700 | – | 100 to 1000 | – | – | – | – | – |
| CNS(=O)(=O)c1ccc(CCCC(CCc2ccccc2)C(=O)O)cc1 (stereo not shown) [Example 13, 5-(4-[(Methylamino)sulfonyl]phenyl)-2-(2-phenylethyl)pentanoic acid] | 2400 | – | 100 to 1000 | 1800 | – | – | – | – |
| CC(CCc1ccccc1)C(=O)O (stereo not shown) [Example 3, 2-Methyl-4-phenylbutanoic acid] | 4510 | – | 100 to 1000 | > 5000 | – | – | – | – |
| O=C(O)C(CCCc1ccccc1)CCc1ccccn1 (stereo not shown) [Example 28, 5-Phenyl-2-(2-pyridin-2-ylethyl)pentanoic acid] | 312 | – | 100 to 1000 | – | – | – | – | – |

Now from value to compound:

| EC50 [1] [µM] | IC50 (human recombinant HDAC 2) [µM] | IC50 (human recombinant HDAC 8) [µM] | EC50 [2] [µM] | EC50 (MDA-MB-435P (breast)) [µM] | EC50 (MDA-MB-468 (breast)) [µM] | EC50 (PC3 (prostate)) [µM] | EC50 (Hep3B (hepatocarcinoma)) [µM] | Structure (SMILES) |
| --- | --- | --- | --- | --- | --- | --- | --- | --- |
| 166 | 100 to 1000 | 10 to 100 | – | – | – | – | – | COc1cccc(CCC(CCCc2ccccc2)C(=O)O)c1 (stereo not shown) [Example 29, 2-[2-(3-methoxyphenyl)ethyl]-5-phenylpentanoic acid] |
| 1300 | 100 to 1000 | 10 to 100 | – | – | – | – | – | CCCC(CCCc1ccccc1)C(=O)O (stereo not shown) [Example 35, 5-Phenyl-2-propylpentanoic acid] |
| 140 | 100 to 1000 | ≤ 10 | – | – | – | – | – | CCc1ccc(CCC(CCCc2cccc(NC(=O)c3ccc(N(C)C)cc3)c2)C(=O)O)cc1 (stereo not shown) [Example 49, 5-(3-{[4-(Dimethylamino)benzoyl]amino}phenyl)-2-[2-(4-ethylphenyl)ethyl]pentanoic acid] |
| 165 | 10 to 100 | ≤ 10 | – | – | – | – | – | CCc1ccc(CCC(CCCc2ccccc2)C(=O)O)cc1 (stereo not shown) [Example 45, 2-[2-(4-Ethylphenyl)ethyl]-5-phenylpentanoic acid] |
| 965 | 100 to 1000 | 10 to 100 | – | – | – | – | – | O=C(O)C(CCCc1ccccc1)OCc1ccccc1 (stereo not shown) [Example 69, 2-(Benzyloxy)-5-phenylpentanoic acid] |
| – | 100 to 1000 | 10 to 100 | – | – | – | – | – | CC(=O)Nc1ccc(CCC(CCCc2ccccc2)C(=O)O)cc1 (stereo not shown) [Example 31, 2-{2-[4-(Acetylamino)phenyl]ethyl}-5-phenylpentanoic acid] |
| 242 | 100 to 1000 | 10 to 100 | – | – | – | – | – | COc1ccc(CCC(CCCc2ccccc2)C(=O)O)cc1 (stereo not shown) [Example 57, 2-[2-(4-Methoxyphenyl)ethyl]-5-phenylpentanoic acid] |
| 23 | 10 to 100 | ≤ 10 | – | 16 | 43 | 102 | 418 | O=C(O)C(CCCc1ccccc1)CCc1ccc(OCc2ccccc2)cc1 (stereo not shown) [Example 55, 2-[2-(4-Benzyloxyphenyl)ethyl]-5-phenylpentanoic acid] |
| 44.8 | 10 to 100 | 10 to 100 | – | – | – | – | – | O=C(O)C(CCCc1ccc(S(=O)(=O)Nc2ccccc2)cc1)CCc1ccccc1 (stereo not shown) [Example 40, 5-(4-[Anilinosulfonyl]phenyl)-2-(2-phenylethyl)pentanoic acid] |
| 90 | 10 to 100 | ≤ 10 | – | – | – | – | – | O=C(O)C(CCCc1ccccc1)CCc1ccc(-c2cccnc2)cc1 (stereo not shown) [Example 77, 2-[2-(4-Pyridin-3′-ylphenyl)ethyl]-5-phenylpentanoic acid] |
| 121 | 100 to 1000 | 10 to 100 | – | – | – | – | – | Cc1ccc(NS(=O)(=O)c2cccc(C#CCC(CCc3ccccc3)C(=O)O)c2)cc1 (stereo not shown) [Example 38, 5-[3-(4-Methylanilinosulfonyl)phenyl]-2-(2-phenylethyl)pent-4-ynoic acid] |
| 58.2 | – | 100 to 1000 | – | – | – | – | – | O=C(O)C(CCCc1ccccc1)CCc1cccc(O)c1 (stereo not shown) [Example 30, 2-[2-(3-Hydroxyphenyl)ethyl]-5-phenylpentanoic acid] |
| 1200 | – | 100 to 1000 | – | – | – | – | – | O=C(O)C(CCCc1cccc(S(=O)(=O)Nc2ccccc2)c1)CCc1ccccc1 (stereo not shown) [Example 39] |
